{
  "source": "patent US6537522B1",
  "about": "“Neuroprobes for mapping monoamine reuptake sites” (Amersham PLC, priority 1992, dated 2003)",
  "key": {"[1]": {"biological_target": "T1, DAT (dopamine transporter) (Rattus norvegicus, UniProt P23977)", "T1 construct": "a crude membrane fraction of homogenates of rat brain corpus striatum (for DAT assays); from tissue; host or cells: rat brain corpus striatum, crude membrane fraction", "T1 sequence (P23977 whole entry)": "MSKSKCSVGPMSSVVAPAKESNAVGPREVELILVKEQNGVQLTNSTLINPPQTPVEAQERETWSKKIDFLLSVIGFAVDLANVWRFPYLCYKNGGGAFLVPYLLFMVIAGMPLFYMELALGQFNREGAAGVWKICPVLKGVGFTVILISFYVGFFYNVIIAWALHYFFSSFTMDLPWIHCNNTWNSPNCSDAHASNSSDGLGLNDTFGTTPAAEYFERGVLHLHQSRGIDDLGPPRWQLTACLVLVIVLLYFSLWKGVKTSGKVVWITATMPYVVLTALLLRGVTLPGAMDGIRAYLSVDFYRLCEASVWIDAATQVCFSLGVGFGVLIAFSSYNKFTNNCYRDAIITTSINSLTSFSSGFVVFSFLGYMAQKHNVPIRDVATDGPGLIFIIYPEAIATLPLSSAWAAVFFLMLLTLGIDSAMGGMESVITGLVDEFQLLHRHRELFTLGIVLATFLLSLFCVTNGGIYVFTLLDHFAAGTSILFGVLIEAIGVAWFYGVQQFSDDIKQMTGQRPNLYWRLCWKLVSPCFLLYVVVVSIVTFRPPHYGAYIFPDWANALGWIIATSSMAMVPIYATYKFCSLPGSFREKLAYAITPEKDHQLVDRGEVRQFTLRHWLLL", "experiment": "DAT assay, [3H]GBR-12935 binding, rat brain corpus striatum membranes", "details": "for selectivity: DAT vs 5-HTT / selectivity: DAT vs NET: ratio of Ki values", "procedure": "(§1) N-phthalimidopropyl-β-CIT (see Example 10) was analyzed as follows. Stock solutions (1 mM) of test agents were made in 95% ethanol/DMSO (1/1, v/v) and stored at −5° C. until used by diluting in a large excess of each assay buffer. Agents are tested at six concentrations in duplicate, with a crude membrane fraction of homogenates of rat brain corpus striatum (for DAT assays) in Tris-citrate buffer (pH 7.4) containing Na^+ ([…]) and Mg^2+ (4 mM) or frontoparietal cerebral cortex (for 5-HTT and NET) in 50 mM Tris-HCl buffer (pH 7.4) containing Na^+ ([…]) and K^+ (5 mM) following methods reported by Neumeyer et al., J. Med. Chem. 37, 1558-1561 (1991), the whole of which is incorporated by reference herein."}, "5-HTT (5-HT transporter)": {"biological_target": "T2, 5-HTT (5-HT transporter) (Rattus norvegicus, UniProt P31652)", "T2 construct": "or frontoparietal cerebral cortex (for 5-HTT and NET); from tissue; host or cells: rat brain frontoparietal cerebral cortex, crude membrane fraction", "T2 sequence (P31652 whole entry)": "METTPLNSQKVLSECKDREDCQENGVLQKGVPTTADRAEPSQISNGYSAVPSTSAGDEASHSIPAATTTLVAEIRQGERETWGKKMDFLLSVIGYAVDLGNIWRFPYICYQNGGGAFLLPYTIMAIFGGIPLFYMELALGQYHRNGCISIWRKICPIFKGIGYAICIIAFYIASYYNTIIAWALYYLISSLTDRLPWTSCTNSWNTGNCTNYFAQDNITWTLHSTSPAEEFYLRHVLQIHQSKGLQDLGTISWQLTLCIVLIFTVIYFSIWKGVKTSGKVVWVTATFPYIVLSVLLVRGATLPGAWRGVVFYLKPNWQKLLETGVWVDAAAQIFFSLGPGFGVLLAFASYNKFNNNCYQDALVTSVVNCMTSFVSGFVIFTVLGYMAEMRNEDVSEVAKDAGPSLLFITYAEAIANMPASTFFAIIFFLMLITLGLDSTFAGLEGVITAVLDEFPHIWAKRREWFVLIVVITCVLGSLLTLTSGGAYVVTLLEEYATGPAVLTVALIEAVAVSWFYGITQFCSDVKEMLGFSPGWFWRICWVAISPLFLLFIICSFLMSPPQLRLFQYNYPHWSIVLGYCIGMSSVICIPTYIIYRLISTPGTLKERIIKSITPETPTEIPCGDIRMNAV", "experiment": "5-HTT assay, [3H]paroxetine binding, rat frontoparietal cerebral cortex membranes", "procedure": "as §1"}, "[2]": {"biological_target": "T3, NET (norepinephrine transporter) (Rattus norvegicus, UniProt Q63380)", "T3 construct": "or frontoparietal cerebral cortex (for 5-HTT and NET); from tissue; host or cells: rat brain frontoparietal cerebral cortex, crude membrane fraction", "T3 sequence (Q63380 1-617)": "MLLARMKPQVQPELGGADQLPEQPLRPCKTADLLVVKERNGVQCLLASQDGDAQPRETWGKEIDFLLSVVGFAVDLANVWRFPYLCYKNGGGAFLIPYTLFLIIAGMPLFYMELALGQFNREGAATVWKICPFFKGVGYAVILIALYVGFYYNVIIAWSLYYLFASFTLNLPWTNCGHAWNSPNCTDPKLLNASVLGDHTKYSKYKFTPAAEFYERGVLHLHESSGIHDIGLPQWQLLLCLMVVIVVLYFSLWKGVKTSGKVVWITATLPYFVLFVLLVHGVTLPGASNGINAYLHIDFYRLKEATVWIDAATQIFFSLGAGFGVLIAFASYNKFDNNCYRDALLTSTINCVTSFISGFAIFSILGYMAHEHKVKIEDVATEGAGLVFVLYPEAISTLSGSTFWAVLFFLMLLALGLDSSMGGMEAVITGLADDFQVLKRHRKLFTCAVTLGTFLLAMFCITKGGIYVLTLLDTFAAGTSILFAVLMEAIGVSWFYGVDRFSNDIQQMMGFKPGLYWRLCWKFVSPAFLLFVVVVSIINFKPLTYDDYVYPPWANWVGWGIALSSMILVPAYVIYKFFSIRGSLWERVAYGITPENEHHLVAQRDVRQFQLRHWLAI", "experiment": "NET assay, [3H]nisoxetine binding, rat frontoparietal cerebral cortex membranes", "procedure": "as §1"}, "[3]": {"tested_on": "dopamine and serotonin reuptake sites", "details": "3 μmol/kg IV at 200 min pi, during 100 min after injection", "quoted_text": "With reference to FIG. 4, five SPECT (single photon emission computer tomography) experiments were performed with four female baboons (Papio anubis, 10-12 kg) under isoflurane anesthesia. […] Serial 1-2 min images were reconstructed assuming uniform attenuation equal to that of water in an ellipse drawn around the brain. Data were decay corrected to time of injection.\nActivity is expressed in arbitrary units known from phantom studies to be linear with radioactive concentrations."}, "[4]": {"tested_on": "dopamine and serotonin reuptake sites", "experiment": "SPECT regional brain activity after injection of [123I]-β-CIT (six experiments)", "type": "in vivo, baboon (Papio anubis)", "procedure": "The final product was formulated in 6 ml sterile saline containing 5-10% ethanol.\nData were decay-corrected to the time of injection.\nThe highest activities were found in the striatal region and reached peak levels at 179±9 min (n=6) post injection (p.i.) (FIG. 2). Striatal activity was monitored in two animals for an additional 190 and […] post peak values."}, "[5]": {"tested_on": "dopamine and serotonin reuptake sites", "experiment": "SPECT regional brain activity after i.v. [123I]-β-CIT (five experiments)", "type": "in vivo, baboon (Papio anubis)", "text": "Data were decay corrected to time of injection."}, "[6]": {"experiment": "whole body scanning, thyroid uptake (in vivo deiodination)", "details": "indicative of slow in vivo deiodination", "text": "The majority of striatal activity was associated with dopamine reuptake sites, and the majority of midbrain activity was associated with serotonin reuptake sites, which is consistent with the densities of these monoamine transporters measured in postmortem primate brains. Brain washout of activity was relatively slow, in part because of the high affinities of β-CIT for the monoamine transporters."}, "dopamine reuptake sites": {"biological_target": "dopamine reuptake sites (Papio anubis, UniProt A0A096MN61)", "sequence (A0A096MN61 1-620)": "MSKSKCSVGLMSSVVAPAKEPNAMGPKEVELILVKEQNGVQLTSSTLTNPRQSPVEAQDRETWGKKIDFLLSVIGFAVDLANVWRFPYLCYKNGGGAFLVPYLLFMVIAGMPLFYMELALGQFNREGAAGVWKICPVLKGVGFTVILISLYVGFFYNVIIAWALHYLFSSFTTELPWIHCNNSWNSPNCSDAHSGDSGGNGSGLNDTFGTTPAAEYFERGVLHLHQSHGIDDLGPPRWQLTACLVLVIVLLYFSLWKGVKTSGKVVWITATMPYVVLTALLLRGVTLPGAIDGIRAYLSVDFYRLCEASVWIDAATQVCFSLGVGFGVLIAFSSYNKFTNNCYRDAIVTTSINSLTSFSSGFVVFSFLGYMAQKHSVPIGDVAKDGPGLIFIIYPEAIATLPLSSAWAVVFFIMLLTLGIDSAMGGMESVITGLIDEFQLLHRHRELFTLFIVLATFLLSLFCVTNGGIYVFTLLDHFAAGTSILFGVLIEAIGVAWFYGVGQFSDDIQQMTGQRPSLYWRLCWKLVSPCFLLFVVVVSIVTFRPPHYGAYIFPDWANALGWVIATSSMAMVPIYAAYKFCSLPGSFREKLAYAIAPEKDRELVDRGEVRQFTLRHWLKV", "experiment": "displacement of [3H]CFT binding in primate striatum tissue homogenates", "parameters": "species or system baboon", "details": "mean ± SEM (n)", "text": "Values represent means±SEM (of n experiments)."}, "serotonin reuptake sites": {"biological_target": "T4, serotonin reuptake sites (Rattus norvegicus, UniProt P31652)", "T4 construct": "homogenates prepared from rat cortical membranes; from tissue; host or cells: rat cortical membranes", "T4 sequence (P31652 whole entry)": "as the sequence (P31652 whole entry) above", "experiment": "displacement of [3H]paroxetine binding in rat cortical membrane homogenates", "details": "for displacement of [3H]paroxetine Hill slope (nH): mean ± SEM (n)"}, "[7]": {"tested_on": "dopamine and serotonin reuptake sites", "details": "within 60-120 min", "procedure": "Six SPECT experiments were performed in four female baboons (10 kg Papio anubis) under isoflurane anesthesia. […] Data were decay-corrected to the time of injection."}, "[8]": {"details": "at time of peak striatal uptake, n=6"}, "[9]": {"details": "0.4 μmol/kg i.v. at 180 min p.i."}},
  "note": "Where two headings read alike, the source gives them in different places.",
  "data": [
    {"smiles": "COC(=O)[C@H]1[C@@H](c2ccc(I)cc2)C[C@@H]2CC[C@H]1N2CCCN1C(=O)c2ccccc2C1=O", "note": "[Example 10, N-phthalimidopropyl-β-CIT]", "values": [
      {"measurement": "Ki", "setting": "[1]; [3H]GBR-12935 0.4 nM, rat corpus striatum, 45 min 4° C., read-out: affinity (Ki) DAT", "value": "9.1 ± 1.1", "unit": "nM"},
      {"measurement": "selectivity: DAT vs 5-HTT", "setting": "[1]", "value": 0.065},
      {"measurement": "selectivity: DAT vs NET", "setting": "[1]", "value": 8.10},
      {"measurement": "Ki", "setting": "5-HTT (5-HT transporter); [3H]paroxetine 0.2 nM, rat cerebral cortex, 60 min 20° C., read-out: affinity (Ki) 5-HTT", "value": "0.59 ± 0.07", "unit": "nM"},
      {"measurement": "Ki", "setting": "[2]; [3H]nisoxetine 0.8 nM, rat cerebral cortex, 180 min 4° C., read-out: affinity (Ki) NET", "value": "73.7 ± 11.6", "unit": "nM"}
    ]},
    {"smiles": "CNC1CC(c2ccc(Cl)c(Cl)c2)c2ccccc21", "note": "(stereo not drawn) [Lu 19-005, indatraline]", "values": [
      {"measurement": "decrease of striatal [123I]-β-CIT activity", "setting": "[3]", "value": 65, "unit": "%"}
    ]},
    {"smiles": "COC(=O)C1C(c2ccc([123I])cc2)CC2CCC1N2C", "note": "(stereo not drawn) [[^123I]-β-CIT, [^123I]-2-β-Carbomethoxy-3-β-(4-iodophenyl)tropane]", "values": [
      {"measurement": "ratio of regional brain activity, cerebellum (striatum 100%)", "setting": "[4]; [8]", "value": "10.0±1.5", "unit": "%"},
      {"measurement": "ratio of regional brain activity, frontal lobe (striatum 100%)", "setting": "[4]; [8]", "value": "10.3±1.0", "unit": "%"},
      {"measurement": "ratio of regional brain activity, hypothalamus (striatum 100%)", "setting": "[4]; [8]", "value": "38.1±5.2", "unit": "%"},
      {"measurement": "ratio of regional brain activity, occipital lobe (striatum 100%)", "setting": "[4]; [8]", "value": "13.5±0.8", "unit": "%"},
      {"measurement": "ratio of regional brain activity, temporo-parietal lobes (striatum 100%)", "setting": "[4]; [8]", "value": "14.3±2.0", "unit": "%"},
      {"measurement": "washout of midbrain activity t½", "setting": "[4]; midbrain, n=3", "value": "294 ± 59", "unit": "min"},
      {"measurement": "time of peak midbrain activity post injection", "setting": "[4]; midbrain, n=6", "value": "45 ± 16", "unit": "min"},
      {"measurement": "striatal activity after peak", "setting": "[4]; one animal, remaining 190 min of the experiment", "value": "virtually unchanged"},
      {"measurement": "washout of striatal activity t½", "setting": "[4]; second animal, exponential fit, r=0.92", "value": 27, "unit": "h"},
      {"measurement": "time of peak striatal activity post injection", "setting": "[4]; striatum, n=6, mean ± S.E.M.", "value": "179 ± 9", "unit": "min"},
      {"measurement": "striatal to cerebellar ratio", "setting": "[5]; at time of striatal peak", "value": "9.8±1.6"},
      {"measurement": "decrease of striatal activity from striatal peak to end of experiment", "setting": "[5]; control animal followed an additional 200 min", "value": 0, "unit": "%"},
      {"measurement": "decrease of striatal activity from striatal peak to end of experiment", "setting": "[5]; control animal followed an additional 260 min", "value": 12, "unit": "%"},
      {"measurement": "time of peak midbrain levels pi", "setting": "[5]; midbrain, n=5", "value": "43 ± 5", "unit": "min"},
      {"measurement": "time of peak striatal uptake postinjection", "setting": "[5]; striatal region, mean ± SEM", "value": "154 ± 19", "unit": "min"},
      {"measurement": "thyroid uptake", "setting": "[6]", "value": "low"}
    ]},
    {"smiles": "COC(=O)[C@H]1[C@@H](c2ccc(F)cc2)C[C@@H]2CC[C@H]1N2C", "note": "[compound 2, 2β-carbomethoxy-3β-(4-fluorophenyl)tropane, reference compound]", "values": [
      {"measurement": "displacement of [3H]CFT Hill slope (nH)", "setting": "dopamine reuptake sites", "value": "0.75 ± 0.01 (3)"},
      {"measurement": "IC50", "setting": "serotonin reuptake sites", "value": "479 ± 59", "unit": "nM"},
      {"measurement": "displacement of [3H]paroxetine Hill slope (nH)", "setting": "serotonin reuptake sites; rat cortical membranes", "value": "1.34 ± 0.22 (3)"},
      {"measurement": "Ki", "setting": "5-HTT (5-HT transporter)", "value": "181 ± 21", "unit": "nM"},
      {"measurement": "Ki", "setting": "[2]", "value": "635 ± 110", "unit": "nM"},
      {"measurement": "displacement of midbrain [123I]-β-CIT levels", "setting": "[7]; [9]", "value": 72, "unit": "%"},
      {"measurement": "displacement of striatal [123I]-β-CIT levels", "setting": "[7]; [9]", "value": 57, "unit": "%"},
      {"measurement": "cumulative displacement of midbrain [123I]-β-CIT levels", "setting": "[7]; 2.0 μmol/kg at 298 min p.i.", "value": 91, "unit": "%"},
      {"measurement": "cumulative displacement of striatal [123I]-β-CIT levels", "setting": "[7]; 2.0 μmol/kg at 298 min p.i.", "value": 83, "unit": "%"}
    ]},
    {"smiles": "COC(=O)[C@H]1[C@@H](c2ccc(I)cc2)C[C@@H]2CC[C@H]1N2C", "note": "[compound 3a, 2β-carbomethoxy-3β-(4-iodophenyl)tropane]", "values": [
      {"measurement": "displacement of [3H]CFT Hill slope (nH)", "setting": "dopamine reuptake sites", "value": "0.79 ± 0.04 (3)"},
      {"measurement": "IC50", "setting": "serotonin reuptake sites", "value": "3.78 ± 0.53", "unit": "nM"},
      {"measurement": "displacement of [3H]paroxetine Hill slope (nH)", "setting": "serotonin reuptake sites; rat cortical membranes", "value": "0.82 ± 0.08 (6)"},
      {"measurement": "Ki", "setting": "[1]", "value": "1.4 ± 0.2", "unit": "nM"},
      {"measurement": "selectivity: DAT vs 5-HTT", "setting": "[1]", "value": 0.320},
      {"measurement": "selectivity: DAT vs NET", "setting": "[1]", "value": 2.00},
      {"measurement": "Ki", "setting": "5-HTT (5-HT transporter)", "value": "0.46 ± 0.06", "unit": "nM"},
      {"measurement": "Ki", "setting": "[2]", "value": "2.8 ± 0.4", "unit": "nM"}
    ]},
    {"smiles": "COC(=O)C1C(c2ccc(I)cc2)CC2CCC1N2C", "note": "(stereo not drawn) [compound 3b, 2-α-Carbomethoxy-3-β-iodophenyltropane]", "values": [
      {"measurement": "displacement of [3H]CFT Hill slope (nH)", "setting": "dopamine reuptake sites", "value": "0.70 ± 0.07 (2)"},
      {"measurement": "displacement of [3H]paroxetine Hill slope (nH)", "setting": "serotonin reuptake sites; rat cortical membranes", "value": "0.73 ± 0.04 (2)"},
      {"measurement": "IC50", "setting": "serotonin reuptake sites; rat cortical membranes, mean ± SEM, read-out: displacement of [3H]paroxetine IC50", "value": "210 ± 86", "unit": "nM"}
    ]}
  ]
}
